These results are taken from patent publication US20180207228A1, “PEPTIDE COMBINATIONS AND USES THEREOF FOR TREATING GRASS ALLERGY” (ALK-Abelló A/S, priority 2015, published 2018).

Entries after “also recorded” stand apart in the source; their conditions may differ. Where no end group is shown, it is not given here.

In assay [1] the test system is grass allergic donor derived T cell lines (TCL-02 DK-2). Briefly: Cross-reactivity of homologue peptides, proliferation on TCL02-DK2 (Study XR1). The assay is classed as cell-based, human. The note with it: 2 μg/ml, TCL02-DK2, 21 donors. The protocol: To measure the experimental cross-reactivity the proliferation assay of Example 3 was carried out on 21 grass allergic donors (TCL02-DK2). […] Cross-reactivity to Phleum pratense peptides with either close (Lolium perenne (Lol p)) or distant (Phalaris aquatica (Pha a), Cynodon dactylon (Cyn d)) species was experimentally investigated.
For analysing the cross-reactivity data, it was investigated if a donor responds to both native and homologue peptide, XY correlation plots were made where the donor responses to native peptides were plotted versus the donor responses to homologues. […] If less than five donors were responding to the parent peptides, then the data was considered to be in-conclusive, and were thus labelled with “-”. For some of the peptides the analysis was further supported by performing a Spearman r-Non Parametric test (data not shown).
Further the magnitude of T cell response from a parent peptide as defined herein and homologue response were plotted in a XY plot by using GraphPad Prism 6.
To measure the experimental cross-reactivity, the proliferation assay of Example 3 was carried out on 21 grass pollen allergic donors (TCL02-DK2, Study XR1) and 20 grass pollen allergic donors (TCL03−DK1+DK2, Study XR2). […] In Study XR1, Cross-reactivity to Phleum pratense peptides with either close (Lolium perenne-Lol p) or distant ([…]-Pha a, Cynodon dactylon-Cyn d) species was experimentally investigated. In Study XR1, 67 homologue peptides corresponding to 41 native Phleum pratense peptides were investigated together with the 41 Phleum pratense peptides at a concentration of 2 μg/ml. Similarly, study XR2 was carried out on 20 grass pollen allergic donors where donor derived TCL-03 lines were used to investigate Phleum pratense cross-reactivity to Poa pratensis (Poa p), Dactylis glomerata (Dac g), Festuca pratensis (Fes p), Paspalum notatum (Pas n), Sorghum halepense (Sor h), Lolium perenne (Lol p), Phalaris aquatica (Pha a) and Cynodon dactylon (Cyn d).

Assay [2] relates to release of IL-5 upon T cell activation. As to the kind of experiment: Fluorospot assay, IL-5 release (DK1-TCL01, US1-TCL01). Format: cell-based, human. As to conditions: head prints TCL-02 DK1; text: 25 TCL-01 DK1 lines. An outline of the steps:
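A peptide counted as a hit at ≥20 SFC/10^6 cells, stimulation index ≥2 over medium, and p and Poisson ≤0.05. Cells came from TCL01 lines, raised from allergic donors' CD8-depleted PBMCs over 14 days of natural-allergen stimulation with IL-2. They were exposed to 2 μg/ml peptide or peptide mix for 20 h at 37° C.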

With DKYRTFVATFGAASNKAFAE-OH [peptide 231], in assay [1], the experimental cross-reactivity entry is given as “showed cross-reactivity”.
Consider PANDKFTVFEAAFNNAIKAS-OH [compound 70], for which, in assay [1], the experimental cross-reactivity entry was “showed cross-reactivity; also recorded: good cross reactivity”. For the same substance, the “IL-5-Fluorospotr % donor coverage (TCL-02 DK1)” value in assay [2] is on record as 16.00%.
Consider STGGAYESYKFIPALEAAVK-OH [compound 71], for which the experimental cross-reactivity entry in assay [1] is reported as “showed cross-reactivity; also recorded: very good cross-reactivity”. Further, in assay [2], the “IL-5-Fluorospotr % donor coverage (TCL-02 DK1)” value is 32.00%.
For the substance TDDNEEPIAPYHFDLSGHAF-OH [peptide 204], in assay [1], the experimental cross-reactivity result is recorded as “showed cross-reactivity; also recorded: good cross-reactivity”.
Regarding VATLSEALRIIAGTLEVHAV-OH [compound 67], in assay [1], the experimental cross-reactivity entry was “showed cross-reactivity”. Further, in assay [2], the “IL-5-Fluorospotr % donor coverage (TCL-02 DK1)” value was found to be 32.00%.
